Series [1] concerns MCF-7 breast cancer cells. In words: MCF-7 proliferation assay. The format is cell-based. In outline:
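MCF-7 cells seeded at 1,000–6,000/well in serum-free DMEM/F12 with 0.2% BSA and 10 ug/ml transferrin; proliferation induced by growth factors (IGF-1, IGF-2, EGF, TGF-a, Nrgbx, b-FGF, amphiregulin); test chimeras added at plating or 16–20 h later. Growth read after 3–4 days by Alamar blue fluorescence (544/590 nm, 4–6 h).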

Series [2] can be described thus: Pharmacokinetics in mice, serum by Fc ELISA. It counts as in vivo. On the procedure: Grenier high binding ELISA plates were coated with 1 ug/ml goat anti-human Fc antibody (Jackson Immunoresearch) in PBS overnight, and then blocked with Assay Buffer (Invitrogen). Plates were incubated for 2 hours with Chimera or human Fc (Jackson Immunoresearch) as standard; followed by HRP-conjugated anti-human Fc antibody (Jackson Immunoresearch) for 60 minutes. HRP substrate, tetramethyl benzidine, was added; the reaction was stopped with 2 N […], and then the plate was read at 450 nm.
Mice were injected subcutaneously with 100 ug chimera 56662 (4 mg/kg). Two mice per group were used. Serum samples were taken at 0, 4, 24, 48, 72 hours after injection. The concentration of 56662 in serum was determined by use of the hu fc ELISA.
Serum half-life was measured in mice. 100 μg IGFBP3-Fc or 56662 (4 mg/kg) was injected subcutaneously and mouse serum was harvested at 0, 4, 24, 48, 72 hours after injection. Chimera concentration in serum was measured with the Fc ELISA. At 24 hours, the concentration of 56662 was over 2 μg/ml (FIG. 28), and the serum half-time was estimated to be about 43 hours.
In general terms: In an ELISA, binding on a coated surface is turned into a signal by an enzyme label.

For series [3], the system named is 3t3. In words: 3t3 proliferation assay. It counts as cell-based. Conditions: PDGF-AB-induced. On the procedure: MCF-7 cells (a breast cancer cell line) were maintained in MEM (GIBCO) plus insulin and NEAA and 10% FBS (Hyclone).
For the proliferation assay, cells except for HUVEC were seeded at a density of 1,000 to 6,000 in 96 wells in an assay buffer of DMEM/F12 plus 0.2% BSA and 10 ug/ml transferrin. Chemical inhibitors were added after 16-20 hours after plating; IGF-1 or other growth factors or test chimeras in assay buffer were added at the time of plating or 16-20 hours after plating. 5,000 HUVEC ells were plated in poly-L-lysine coated 96 wells in M199 with 1%/FBS and HEPES. After 3 to 4 days of culture, growth was determined by incubating cells with Alamar blue for 4 to 6 hours and then the fluorescence (RFU) at 544/590 nm was read. For long term proliferation assays, cells were plated in the growth media with 5% or 10% FBS at densities of 500 to 10,000 cells per cm^2 growth area and grown for 7 to 21 days. Inhibitors and effectors were added 1-4 days after plating. Cells were exposed to cisplatin or gemcitabine for two days. Medium was renewed twice weekly. At completion, cells were fixed and then stained with Giemsa.

For series [4], the system named is HUVEC cells. In words: HUVEC proliferation assay. Conditions: HGF-induced, HUVEC. It counts as cell-based. In outline: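 HUVEC, 5,000 per well, plated on poly-L-lysine in M199 with 1% FBS and HEPES. After 3 to 4 days of culture, growth read by Alamar blue incubation for 4 to 6 hours, fluorescence (RFU) at 544/590 nm.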

As for “56662: IGFBP3-Fc, SEQ ID NO: 7; unmodified IGFBP3 fused with the IgG Fc portion [compound 56662]”, in series [1] (EGF-induced, MCF-7 cells), the “In vitro inhibition of proliferation, EGF” value was “yes”. The “In vitro inhibition of proliferation, IGF-1” value in series [1] (IGF-1-induced, MCF-7 cells) is “yes”. Moreover, the “In vitro inhibition of proliferation, IGF-2” value in series [1] (IGF-2-induced, MCF-7 cells) is “yes”. The “In vitro inhibition of proliferation, TGF-α” value in series [1] (TGF-α-induced, MCF-7 cells) is reported as “yes”. In addition, the “In vitro inhibition of proliferation, VEGF-165” value in series [1] (VEGF-165, MCF-7 cells per footnote) is on record as “no”. Also, the “In vitro inhibition of proliferation, bFGF” value in series [1] (bFGF-induced, MCF-7 cells) was “yes”. For the same substance, in series [1] (fetal bovine serum, FIG. 1, FIG. 4), the “inhibition of FBS-induced proliferation of MCF-7” value is “inhibited”. Further, the “inhibition of proliferation induced by long-R3-IGF-1” value in series [1] (high concentrations of 56662, FIG. 2) is recorded as “can inhibit”. Besides, the “In vitro inhibition of proliferation, neuregulin” value in series [1] (neuregulin-induced, MCF-7 cells) was “yes”. Further, the serum half-life in series [2] (estimated) was 20 to 40 h. The “concentration in serum at 24 hours” value in series [2] (mice, 100 μg (4 mg/kg) subcutaneously, FIG. 28) was “over 2 μg/ml”. Besides, the serum half-time entry in series [2] (mice, 100 μg (4 mg/kg) subcutaneously, estimated) was “about 43 hours”. Moreover, the “In vitro inhibition of proliferation, PDGF-AB” value in series [3] is reported as “yes (3t3)”. Further, the “In vitro inhibition of proliferation, HGF” value in series [4] was “yes (hep3B, HUVEC)”.

(Values after patent US11254722B2, “Recombinant proteins and uses thereof” (ACADEMIA SINICA, priority 2017, dated 2022).)
